What was measured:
Assay in all cases: [3H]DAMGO saturation binding, CHO membranes
rMOR-1H2 = biological target: T1, rMOR-1H2 (Rattus norvegicus, UniProt D2CKI5)
T1 construct: gene Oprm1; 7 TM

rMOR-1i2 = biological target: T2, rMOR-1i2 (Rattus norvegicus, UniProt B8Q1M0)
T2 construct: gene Oprm1; exon 11-associated transcript predicting the same protein as rMOR-1 (AUG in exon 1a)

rMOR-1H1 = biological target: T3, rMOR-1H1 (Rattus norvegicus, UniProt B8Q1M0)
T3 construct: gene Oprm1; exon 11-associated transcript predicting the same protein as rMOR-1 (AUG in exon 1a)
T3 sequence (B8Q1M0 1-398): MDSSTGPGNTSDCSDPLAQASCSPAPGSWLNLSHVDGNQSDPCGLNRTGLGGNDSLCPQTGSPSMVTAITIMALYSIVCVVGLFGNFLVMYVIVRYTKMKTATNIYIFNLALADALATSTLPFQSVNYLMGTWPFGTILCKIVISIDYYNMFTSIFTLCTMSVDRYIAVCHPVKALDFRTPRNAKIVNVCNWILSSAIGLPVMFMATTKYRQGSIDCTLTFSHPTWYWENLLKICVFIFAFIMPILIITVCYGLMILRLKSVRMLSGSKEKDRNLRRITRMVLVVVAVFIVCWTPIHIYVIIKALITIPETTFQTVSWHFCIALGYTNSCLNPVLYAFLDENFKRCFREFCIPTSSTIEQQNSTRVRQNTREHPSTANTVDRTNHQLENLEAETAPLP

T2 sequence (B8Q1M0 1-398): as above
T1 sequence (D2CKI5 1-448): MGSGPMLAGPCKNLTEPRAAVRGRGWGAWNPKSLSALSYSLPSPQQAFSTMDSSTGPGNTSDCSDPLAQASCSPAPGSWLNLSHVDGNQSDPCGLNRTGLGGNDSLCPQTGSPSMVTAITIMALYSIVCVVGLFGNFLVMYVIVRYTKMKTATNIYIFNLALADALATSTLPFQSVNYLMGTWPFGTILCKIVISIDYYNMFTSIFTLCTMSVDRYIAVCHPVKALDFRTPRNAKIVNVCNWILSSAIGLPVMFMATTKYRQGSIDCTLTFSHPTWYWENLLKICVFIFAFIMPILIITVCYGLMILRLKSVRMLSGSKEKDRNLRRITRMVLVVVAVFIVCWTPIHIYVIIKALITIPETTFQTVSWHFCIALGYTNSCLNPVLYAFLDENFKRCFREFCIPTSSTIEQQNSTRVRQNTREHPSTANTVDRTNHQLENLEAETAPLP

For `C[C@@H](NC(=O)[C@@H](N)Cc1ccc(O)cc1)C(=O)NCC(=O)N(C)[C@@H](Cc1ccccc1)C(=O)NCCO` [DAMGO], the Kd (rMOR-1H2) was 370 ± 20 pM, the Kd (rMOR-1i2) was 360 ± 40 pM and the Kd (rMOR-1H1) was 510 ± 50 pM.
